Source: ChEMBL document CHEMBL4321836, “Discovery of BAY-298 and BAY-899: Tetrahydro-1,6-naphthyridine-Based, Potent, and Selective Antagonists of the Luteinizing Hormone Receptor Which Reduce Sex Hormone Levels in Vivo” (J Med Chem, 2019)
pIC50: −log10 of the molar value. Activity calls are given as the source filed them. No cut-off for these calls is given here.

Legend:
Thyrotropin receptor = Thyrotropin receptor (Homo sapiens, UniProt P16473); assay: Antagonist activity at human thyroid stimulating hormone receptor expressed in rat HTC133 cells assessed as reduction in agonist-induced cAMP production preincubated for 20 mins followed by agonist solution addition and measured after 60 mins by cell based TR-FRET assay; assay type: functional
Sequence of Thyrotropin receptor (P16473 whole entry): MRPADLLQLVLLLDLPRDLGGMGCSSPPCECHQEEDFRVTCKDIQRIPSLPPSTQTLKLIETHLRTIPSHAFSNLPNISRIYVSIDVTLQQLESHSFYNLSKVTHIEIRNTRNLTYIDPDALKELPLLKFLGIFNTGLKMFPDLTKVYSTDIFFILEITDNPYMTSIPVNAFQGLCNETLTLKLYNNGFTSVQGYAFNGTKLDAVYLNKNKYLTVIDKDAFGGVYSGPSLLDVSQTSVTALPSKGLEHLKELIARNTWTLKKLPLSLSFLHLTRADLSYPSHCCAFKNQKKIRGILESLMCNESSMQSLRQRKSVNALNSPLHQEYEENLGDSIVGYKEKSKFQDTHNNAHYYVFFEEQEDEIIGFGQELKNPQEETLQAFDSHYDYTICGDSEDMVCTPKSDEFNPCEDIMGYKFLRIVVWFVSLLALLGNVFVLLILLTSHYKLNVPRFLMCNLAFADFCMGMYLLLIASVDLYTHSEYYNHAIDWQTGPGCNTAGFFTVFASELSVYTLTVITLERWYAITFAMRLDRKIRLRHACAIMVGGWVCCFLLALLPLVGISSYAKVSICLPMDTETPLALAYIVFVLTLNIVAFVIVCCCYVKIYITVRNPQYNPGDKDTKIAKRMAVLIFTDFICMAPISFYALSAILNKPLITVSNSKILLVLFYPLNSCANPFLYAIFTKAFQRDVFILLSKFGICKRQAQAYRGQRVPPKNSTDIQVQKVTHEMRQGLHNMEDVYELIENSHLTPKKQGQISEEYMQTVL

[1] = target: Lutropin-choriogonadotropic hormone receptor (Rattus norvegicus, UniProt P16235); assay: Antagonist activity at rat luteinizing hormone receptor expressed in rat ovary granulosa GLHR15 cell suspension assessed as reduction in agonist-induced cAMP production preincubated for 30 mins followed by agonist solution addition after 30 mins by cell based TR-FRET assay; assay type: functional
Sequence of Lutropin-choriogonadotropic hormone receptor (Rattus norvegicus, UniProt P16235) (P16235 whole entry): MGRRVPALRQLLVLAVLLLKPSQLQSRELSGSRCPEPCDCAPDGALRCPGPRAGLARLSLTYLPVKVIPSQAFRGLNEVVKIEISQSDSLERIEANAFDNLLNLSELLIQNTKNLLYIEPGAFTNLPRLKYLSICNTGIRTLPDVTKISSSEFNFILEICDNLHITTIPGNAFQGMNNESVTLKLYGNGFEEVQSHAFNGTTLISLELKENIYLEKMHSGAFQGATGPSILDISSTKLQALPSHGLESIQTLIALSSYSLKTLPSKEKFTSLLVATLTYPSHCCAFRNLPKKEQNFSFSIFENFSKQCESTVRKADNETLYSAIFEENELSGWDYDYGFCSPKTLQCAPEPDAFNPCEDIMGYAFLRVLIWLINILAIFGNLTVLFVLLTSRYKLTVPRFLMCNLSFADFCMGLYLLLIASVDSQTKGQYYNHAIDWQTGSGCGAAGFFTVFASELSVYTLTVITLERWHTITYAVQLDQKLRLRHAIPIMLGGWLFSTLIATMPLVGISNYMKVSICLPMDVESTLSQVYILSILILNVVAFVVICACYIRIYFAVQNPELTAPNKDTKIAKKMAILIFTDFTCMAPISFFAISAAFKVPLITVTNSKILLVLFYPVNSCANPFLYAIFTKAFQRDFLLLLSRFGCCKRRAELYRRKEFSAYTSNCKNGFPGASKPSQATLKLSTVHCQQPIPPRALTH

[2] = target: T1, Follicle-stimulating hormone receptor (Homo sapiens, UniProt P23945); assay: Antagonist activity at human follicle stimulating hormone receptor assessed as reduction in agonist-induced cAMP production preincubated for 20 mins followed by agonist solution addition and measured after 120 mins by cell based TR-FRET assay; assay type: functional
T1 sequence (P23945 whole entry): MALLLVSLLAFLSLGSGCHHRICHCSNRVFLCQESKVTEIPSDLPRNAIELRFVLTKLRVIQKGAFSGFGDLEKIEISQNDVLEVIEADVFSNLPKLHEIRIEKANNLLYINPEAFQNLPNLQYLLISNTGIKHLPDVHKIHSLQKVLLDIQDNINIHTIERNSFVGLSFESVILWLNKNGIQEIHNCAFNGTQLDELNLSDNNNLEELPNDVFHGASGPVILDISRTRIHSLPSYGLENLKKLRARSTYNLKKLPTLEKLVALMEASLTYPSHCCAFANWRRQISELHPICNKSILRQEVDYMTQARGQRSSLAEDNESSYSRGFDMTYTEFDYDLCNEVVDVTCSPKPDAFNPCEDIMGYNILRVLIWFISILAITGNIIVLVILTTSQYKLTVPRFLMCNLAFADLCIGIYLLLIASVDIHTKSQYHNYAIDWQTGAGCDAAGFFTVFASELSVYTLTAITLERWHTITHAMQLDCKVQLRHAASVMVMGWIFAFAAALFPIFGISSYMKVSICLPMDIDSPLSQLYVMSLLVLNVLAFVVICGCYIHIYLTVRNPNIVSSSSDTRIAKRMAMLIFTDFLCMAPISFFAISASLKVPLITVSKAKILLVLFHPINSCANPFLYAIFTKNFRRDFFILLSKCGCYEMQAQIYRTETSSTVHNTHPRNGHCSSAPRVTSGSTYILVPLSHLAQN

[3] = target: Lutropin-choriogonadotropic hormone receptor (Mus musculus, UniProt P30730); assay: Antagonist activity at luteinizing hormone receptor in mouse MLTC-1 cells assessed as reduction in agonist-induced cAMP production preincubated for 30 mins followed by agonist solution addition and measured after 30 mins by cell based TR-FRET assay; assay type: functional
Sequence of Lutropin-choriogonadotropic hormone receptor (Mus musculus, UniProt P30730) (P30730 whole entry): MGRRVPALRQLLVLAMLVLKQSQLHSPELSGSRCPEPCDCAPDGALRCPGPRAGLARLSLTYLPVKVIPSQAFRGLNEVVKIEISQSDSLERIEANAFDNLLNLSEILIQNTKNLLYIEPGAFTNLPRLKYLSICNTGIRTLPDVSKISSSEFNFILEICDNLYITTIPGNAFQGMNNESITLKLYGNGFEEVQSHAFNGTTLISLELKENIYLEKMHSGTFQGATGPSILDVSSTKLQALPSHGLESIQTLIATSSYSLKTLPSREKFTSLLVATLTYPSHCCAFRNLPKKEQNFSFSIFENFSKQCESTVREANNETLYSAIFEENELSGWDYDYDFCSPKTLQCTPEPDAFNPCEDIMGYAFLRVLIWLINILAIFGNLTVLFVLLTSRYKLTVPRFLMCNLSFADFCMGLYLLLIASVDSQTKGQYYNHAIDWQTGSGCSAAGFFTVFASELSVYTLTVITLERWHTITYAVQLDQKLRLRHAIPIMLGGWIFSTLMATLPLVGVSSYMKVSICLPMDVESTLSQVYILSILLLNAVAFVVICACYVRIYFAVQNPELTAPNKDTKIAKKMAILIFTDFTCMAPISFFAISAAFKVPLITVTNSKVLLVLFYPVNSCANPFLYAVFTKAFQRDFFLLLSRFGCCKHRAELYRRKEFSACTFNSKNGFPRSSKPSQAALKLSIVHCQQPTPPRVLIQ

[4] = target: T2, Lutropin-choriogonadotropic hormone receptor (Homo sapiens, UniProt P22888); assay: Antagonist activity at human luteinizing hormone receptor assessed as reduction in agonist-induced cAMP production preincubated for 20 mins followed by agonist solution addition after 60 mins by cell based TR-FRET assay; assay type: functional
T2 sequence (P22888 whole entry): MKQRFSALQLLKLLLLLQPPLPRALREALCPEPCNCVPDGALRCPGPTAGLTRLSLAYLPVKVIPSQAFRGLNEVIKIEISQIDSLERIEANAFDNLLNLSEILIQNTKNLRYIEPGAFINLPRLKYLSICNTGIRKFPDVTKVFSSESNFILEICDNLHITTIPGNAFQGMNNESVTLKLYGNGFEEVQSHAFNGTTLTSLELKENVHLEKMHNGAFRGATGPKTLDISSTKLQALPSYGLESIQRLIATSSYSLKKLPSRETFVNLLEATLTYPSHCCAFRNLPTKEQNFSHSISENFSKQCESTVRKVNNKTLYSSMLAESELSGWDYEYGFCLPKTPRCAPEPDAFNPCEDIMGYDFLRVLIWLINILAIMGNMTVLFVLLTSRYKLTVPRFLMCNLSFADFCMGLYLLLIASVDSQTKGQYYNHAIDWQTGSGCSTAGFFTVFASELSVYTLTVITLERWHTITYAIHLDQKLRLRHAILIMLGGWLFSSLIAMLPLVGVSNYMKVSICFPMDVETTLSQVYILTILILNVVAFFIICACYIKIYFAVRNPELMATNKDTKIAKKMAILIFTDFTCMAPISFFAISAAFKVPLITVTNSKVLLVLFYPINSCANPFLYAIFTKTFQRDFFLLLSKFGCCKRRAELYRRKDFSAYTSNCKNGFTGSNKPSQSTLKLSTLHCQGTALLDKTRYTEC

[5] = Lipophilicity, logD of the compound at pH 7.5 by reversed-phase HPLC; assay type: physicochemical; details: buffer
[6] = Maximum oral bioavailability in human liver microsomes based well stirred liver model at 1 uM measured after 2 to 60 mins in presence of glucose-6-phosphate by LC-MS/MS analysis; assay type: ADME, Microsome; details: read-out: Fmax
[7] = Clearance in human liver microsomes at 1 uM measured after 2 to 60 mins in presence of glucose-6-phosphate by LC-MS/MS analysis; assay type: ADME, Microsome
[8] = target: Relaxin receptor 1 (Homo sapiens) (UniProt Q9HBX9); assay: Antagonist activity at human RXFP1 assessed as reduction in agonist-induced cAMP production preincubated for 20 mins followed by mutRelaxin agonist addition measured after 60 mins by cell based TR-FRET assay; assay type: functional
Sequence of Relaxin receptor 1 (Homo sapiens) (Q9HBX9 whole entry): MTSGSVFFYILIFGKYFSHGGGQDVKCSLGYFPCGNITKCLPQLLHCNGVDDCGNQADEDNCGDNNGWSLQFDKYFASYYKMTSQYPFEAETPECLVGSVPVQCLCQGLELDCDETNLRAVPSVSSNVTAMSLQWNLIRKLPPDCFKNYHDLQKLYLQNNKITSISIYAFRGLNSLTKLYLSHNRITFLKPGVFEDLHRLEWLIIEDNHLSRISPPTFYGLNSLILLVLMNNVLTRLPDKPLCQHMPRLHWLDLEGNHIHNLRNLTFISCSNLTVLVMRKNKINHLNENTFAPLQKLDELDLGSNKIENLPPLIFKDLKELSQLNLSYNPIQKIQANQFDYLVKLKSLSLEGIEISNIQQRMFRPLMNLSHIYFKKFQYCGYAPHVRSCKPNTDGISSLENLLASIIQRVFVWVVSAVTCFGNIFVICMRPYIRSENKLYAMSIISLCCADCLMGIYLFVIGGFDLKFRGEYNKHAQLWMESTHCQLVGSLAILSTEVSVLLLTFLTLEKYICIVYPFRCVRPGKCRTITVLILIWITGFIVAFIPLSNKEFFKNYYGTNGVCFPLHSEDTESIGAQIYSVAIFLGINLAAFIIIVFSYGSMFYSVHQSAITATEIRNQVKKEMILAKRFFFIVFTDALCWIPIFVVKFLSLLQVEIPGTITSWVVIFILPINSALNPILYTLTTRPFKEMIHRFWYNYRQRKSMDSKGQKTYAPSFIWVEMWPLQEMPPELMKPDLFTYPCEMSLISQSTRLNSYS

[9] = target: T2, Lutropin-choriogonadotropic hormone receptor; assay: Agonist activity at human luteinizing hormone receptor incubated for 60 mins by cell based TR-FRET assay; details: human, 1 h

Row | SMILES | pIC50 [4] | chromatographic logD [5] | Fh at 1 µM [6] | CLhep predicted at 1 µM [7] | also measured
1 | COc1ccc([C@@H]2c3ccsc3CCN2C(=O)Nc2cc(Cl)cc(Cl)c2)cc1 | 5.17 | – | – | – | pIC50 (Thyrotropin receptor): < 4.52; pIC50 [1]: 5.31; pIC50 [2]: < 4.78; pIC50 [3]: < 4.52
2 | COc1cc(NC(=O)N2CCc3sccc3[C@@H]2c2ccccc2)cc(OC)c1 | 6.71 | – | – | – | –
3 | COc1ccc([C@H]2c3ccsc3CCN2C(=O)Nc2cc(Cl)cc(Cl)c2)cc1 | 6.39 | – | – | – | pIC50 (Thyrotropin receptor): < 4.52; pIC50 [1]: 6.39; pIC50 [2]: < 4.78; pIC50 [3]: < 4.52
4 | O=C(Nc1ccc(Oc2ccc(F)cc2)nc1)N1CCc2ncccc2[C@@H]1c1ccc(F)cc1 | 6.51 | 3.2 | 83% | 3.33 mL/min/kg | –
5 | O=C(Nc1ccc(Oc2ccc(F)cc2)cc1)N1CCc2ncccc2[C@@H]1c1ccc(F)cc1 | 6.99 | 3.9 | 75% | 5 mL/min/kg | –
6 | O=C(Nc1ccccc1)N1CCc2sccc2C1c1ccc(Cl)cc1 (racemic) | 7.02 | 4 | 26% | 16.7 mL/min/kg | –
7 | O=C(Nc1ccc(F)c(Cl)c1)N1CCc2sccc2C1c1ccc(Cl)cc1 (racemic) | 6.76 | 5.1 | – | – | –
8 | COc1ccc(C2c3ccsc3CCN2C(=O)Nc2ccc(F)c(C(N)=O)c2)cc1 (racemic) | 5.77 | 2.8 | – | – | –
9 | NC(=O)c1ccc(C2c3ccsc3CCN2C(=O)Nc2cc(Cl)cc(Cl)c2)cc1 (racemic) | < 4.78 | 3.7 | – | – | –
10 | O=C(Nc1ccc(F)c(OC(F)(F)F)c1)N1CCc2sccc2C1c1ccc(Cl)cc1 (racemic) | 7.09 | 5.2 | 42% | 13.3 mL/min/kg | –
11 | Cc1ccccc1C1c2ccsc2CCN1C(=O)Nc1cc(Cl)cc(Cl)c1 (racemic) | < 4.78 | – | – | – | –
12 | O=C(Nc1cc(Cl)cc(Cl)c1)N1CCc2sccc2C1c1ccc(F)c(F)c1 (racemic) | 5.73 | – | 40% | 13.3 mL/min/kg | –
13 | COc1ccc(C2c3ccsc3CCN2C(=O)Nc2ccc(F)c(N3CCS(=O)(=O)CC3)c2)cc1 (racemic) | < 4.78 | 3.1 | – | – | –
14 | Cc1ccc(C2c3ccsc3CCN2C(=O)Nc2cc(Cl)cc(Cl)c2)cc1 (racemic) | 5.58 | 5.5 | 8% | 20 mL/min/kg | –
15 | O=C(Nc1cc(Cl)cc(Cl)c1)N1CCc2sccc2C1c1ccc(C(F)(F)F)cc1 (racemic) | 5.44 | – | 51% | 11.7 mL/min/kg | –
16 | O=C(Nc1cc(Cl)cc(Cl)c1)N1CCc2sccc2C1c1cccnc1 (racemic) | 5.13 | 4.2 | 11% | 20 mL/min/kg | –
17 | COc1ccc(C2c3ccsc3CCN2C(=S)Nc2cc(OC)cc(OC)c2)cc1 (racemic) | 5.48 | 3.7 | – | – | –

Row | SMILES | pIC50 [4] | chromatographic logD [5] | Fh at 1 µM [6] | CLhep predicted at 1 µM [7] | also measured
18 | COc1ccc(C2c3ccsc3CCN2C(=O)Nc2cc(OC)cc(OC)c2)cc1 (racemic) | 6.68 | 3.6 | 3% | 21.7 mL/min/kg | –
19 | CC(C)c1ccc(C2c3ccsc3CCN2C(=O)Nc2cc(Cl)cc(Cl)c2)cc1 (racemic) | < 4.78 | – | – | – | –
20 | O=C(Nc1ccc(Oc2ccc(F)cc2)cc1)N1CCc2sccc2C1c1ccc(Cl)cc1 (racemic) | 6.90 | 5.3 | 56% | 10 mL/min/kg | –
21 | O=C(Nc1cc(Cl)cc(Cl)c1)N1CCc2sccc2C1c1ccc(=O)[nH]c1 (racemic) | 5.64 | 3.7 | – | – | –
22 | COc1ccc(C2c3ccsc3CCN2C(=O)Cc2cc(C)cc(C)c2)cc1 (racemic) | < 4.80 | 4.8 | – | – | –
23 | O=C(Nc1cc(Cl)cc(Cl)c1)N1CCc2sccc2C1c1ccccc1 (racemic) | 5.79 | – | – | – | –
24 | O=C(Nc1cc(Cl)cc(Cl)c1)N1CCc2sccc2C1c1ccccn1 (racemic) | < 4.78 | – | – | – | –
25 | O=C(Nc1cc(Cl)cc(Cl)c1)N1CCc2sccc2C1c1ccccc1F (racemic) | 5.49 | 4.8 | 17% | 18.3 mL/min/kg | –
26 | O=C(Nc1cc(Cl)cc(Cl)c1)N1CCc2sccc2C1c1ccncc1 (racemic) | 5.29 | 4.2 | – | – | –
27 | COc1ccc(C2c3ccsc3CCN2C(=O)Nc2ccc(Cl)cc2)cc1 (racemic) | 6.97 | 3.9 | 18% | 18.3 mL/min/kg | –
28 | O=C(Nc1cccc(Oc2ccccc2)c1)N1CCc2sccc2C1c1ccc(Cl)cc1 (racemic) | 6.48 | 5.4 | – | – | –
29 | COc1ccc(C2c3ccsc3CCN2C(=O)Nc2cc(C)cc(C)c2)cc1 (racemic) | 6.24 | 4.1 | – | – | –
30 | COc1ccc(C2c3ccsc3CCN2C(=O)Nc2cccc(Cl)c2)cc1 (racemic) | 6.56 | 4.2 | 7% | 20 mL/min/kg | –
31 | O=C(Nc1cc(Cl)cc(Cl)c1)N1CCc2sccc2C1c1cccc(F)c1 (racemic) | 5.50 | 5.1 | – | – | –
32 | O=C(Nc1cc(Cl)cc(Cl)c1)N1CCc2sccc2C1c1ccc(Cl)cc1 (racemic) | 6.31 | – | 48% | 11.7 mL/min/kg | –
33 | COc1ccc(C2c3ccsc3CCN2C(=O)Nc2cc(Cl)cc(Cl)c2)cc1 (racemic) | 6.42 | 5 | 3% | 21.7 mL/min/kg | inhibition [8]: inactive; pIC50 (Thyrotropin receptor): < 4.52; pIC50 [1]: 6.67; Activity [9]: Not Active; pIC50 [2]: < 4.78; pIC50 [3]: < 4.52
